The source of these data is patent US20220267260A1, “COMPOUNDS CONTAINING A SULFONIC GROUP AS KAT INHIBITORS” (Epizyme, Inc., priority 2016, published 2022).

The target in experiment [1] is T1, KAT5 (Homo sapiens, UniProt Q92993).
T1 construct: His-TEV tag (N, cleaved yes); made in house
Nature of the experiment: KAT5 enzyme inhibition assay (SAMDI mass spectrometry). It counts as biochemical. The following applies: His-TEV-FL KAT5-Flag enzyme construct.

For experiment [2], the target named is T2, KAT6A (Homo sapiens, UniProt Q92794).
T2 construct: His-TEV tag (N, cleaved yes); made in house
The experiment in a line: KAT6A enzyme inhibition assay (SAMDI mass spectrometry). To be noted: His-TEV-KAT6A 501-784 enzyme construct. In kind it is biochemical.

Molecules are shown by their SMILES.

T1 sequence (Q92993 with tags, fused parts or gaps): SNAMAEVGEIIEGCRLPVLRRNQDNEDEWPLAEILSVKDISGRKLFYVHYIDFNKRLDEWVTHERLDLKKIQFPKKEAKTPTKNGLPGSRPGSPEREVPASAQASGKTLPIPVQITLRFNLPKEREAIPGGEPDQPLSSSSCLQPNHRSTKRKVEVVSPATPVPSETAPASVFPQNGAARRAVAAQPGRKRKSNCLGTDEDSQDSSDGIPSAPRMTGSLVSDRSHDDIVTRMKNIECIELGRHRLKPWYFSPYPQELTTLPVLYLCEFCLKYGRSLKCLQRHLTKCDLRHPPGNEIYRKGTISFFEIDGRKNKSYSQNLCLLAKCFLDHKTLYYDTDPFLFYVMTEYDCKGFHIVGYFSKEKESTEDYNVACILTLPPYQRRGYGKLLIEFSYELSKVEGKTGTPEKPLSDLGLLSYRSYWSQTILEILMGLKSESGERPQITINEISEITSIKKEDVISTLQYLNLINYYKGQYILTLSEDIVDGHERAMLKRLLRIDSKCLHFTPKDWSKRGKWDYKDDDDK
T2 sequence (Q92794 with tags, fused parts or gaps): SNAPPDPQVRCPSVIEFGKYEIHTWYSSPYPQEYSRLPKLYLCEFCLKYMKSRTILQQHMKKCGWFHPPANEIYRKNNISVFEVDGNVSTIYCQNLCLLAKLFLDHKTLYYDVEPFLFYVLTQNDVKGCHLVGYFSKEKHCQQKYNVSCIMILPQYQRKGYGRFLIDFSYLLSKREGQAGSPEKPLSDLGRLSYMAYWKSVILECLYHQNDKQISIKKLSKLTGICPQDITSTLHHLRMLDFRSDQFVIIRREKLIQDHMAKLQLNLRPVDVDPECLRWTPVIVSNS

Usually IC50 stands for the concentration needed to halve the response being measured. As for `Cc1cc(-c2cccc(F)c2)cc(C(=O)NNS(=O)(=O)CC2CCN(C(=O)CCN(C)C(=O)OC(C)(C)C)CC2)c1F` [Compound I-327], the IC50 in experiment [1] and in experiment [2] was no more than 10 µM each time.
`CNCCC(=O)N1CCCC(CS(=O)(=O)NNC(=O)c2cc(-c3cccc(F)c3)cc(C)c2F)C1` (centres unmarked) [Compound I-328]: the concentration for half-maximal inhibition (IC50) in experiment [1] and in experiment [2] was 10 to 50 µM throughout.
As for `Cc1cc(-c2cccc(F)c2)cc(C(=O)NNS(=O)(=O)CC2CCCN(C(=O)CCN(C)C)C2)c1F` (centres unmarked) [Compound I-329], the IC50 in experiment [1] and in experiment [2] was 10 to 50 µM each time.
`CC(=O)N1CCCC(CS(=O)(=O)NNC(=O)c2cc(-c3cccc(F)c3)cc(C)c2F)C1` (centres unmarked) [Compound I-330]: the IC50 in experiment [1] and in experiment [2] was no more than 10 µM throughout.
Take `Cc1cc(-c2cccc(F)c2)cc(C(=O)NNS(=O)(=O)CC2CCCN(C(=O)CCN(C)C(=O)OC(C)(C)C)C2)c1F` (centres unmarked) [Compound I-331]: the IC50 in experiment [1] and in experiment [2] was no more than 10 µM throughout.
In the case of `O=C(NNS(=O)(=O)C1CCCCC1)c1nc(-c2ccccc2)ccc1F` [Compound I-332], the IC50 in experiment [1] and in experiment [2] was greater than 100 µM each time.
For the compound `CNCCC(=O)N1CCCC(CS(=O)(=O)NNC(=O)c2cc(-c3ccccc3)cc(C)c2F)C1` (centres unmarked) [Compound I-333], the IC50 in experiment [1] and in experiment [2] was 10 to 50 µM throughout.
Take `COCCN1CCCC(C(C)S(=O)(=O)NNC(=O)c2cc(-c3ccccc3)cc(C)c2F)C1` (centres unmarked) [Compound I-334]: the IC50 in experiment [1] and in experiment [2] was 10 to 50 µM throughout.
Turning to `CC(=O)N1CCC(CS(=O)(=O)NNC(=O)c2cc(-c3ccccc3)cc(C)c2F)C1` (centres unmarked) [Compound I-335], the IC50 in experiment [1] and in experiment [2] was no more than 10 µM in each case.
In the case of `COCCN1CCC(CS(=O)(=O)NNC(=O)c2cc(-c3ccccc3)cc(C)c2F)C1` (centres unmarked) [Compound I-336], the 50% inhibitory concentration (IC50) in experiment [1] and in experiment [2] was 10 to 50 µM in each case.
For `Cc1cc(-c2ccccc2)cc(C(=O)NNS(=O)(=O)CC2CCCN(C)C2)c1F` (centres unmarked) [Compound I-337], the IC50 in experiment [1] and in experiment [2] was 10 to 50 µM throughout.
Take `Cc1cc(C2CCN(C)CC2)cc(C(=O)NNS(=O)(=O)C2CCCCC2)c1F` [Compound I-338]: the IC50 in experiment [1] and in experiment [2] was greater than 100 µM throughout.
As for `Cc1cc(-c2ccccc2)cc(C(=O)NNS(=O)(=O)CC2CCCN(CCO)C2)c1F` (centres unmarked) [Compound I-339], the IC50 in experiment [1] and in experiment [2] was 10 to 50 µM in each case.
Consider `Cc1cc(-c2cccc(Cl)c2)cc(C(=O)NNS(=O)(=O)c2ccccc2)c1F` [Compound I-340], for which the IC50 in experiment [1] and in experiment [2] was no more than 10 µM each time.
For the compound `CC(=O)N1CCC(CS(=O)(=O)NNC(=O)c2cc(-c3ccccc3)cc(C)c2F)CC1` [Compound I-341], the half-maximal inhibitory concentration (IC50) in experiment [1] and in experiment [2] was no more than 10 µM in each case.
In the case of `Cc1cc(-c2cccc(Cl)c2)cc(C(=O)NNS(=O)(=O)CC2CCCCC2)c1F` [Compound I-342], the IC50 in experiment [1] and in experiment [2] was 50 to 100 µM throughout.
Consider `Cc1cc(-c2ccccc2)cc(C(=O)NNS(=O)(=O)CC2CCN(CCO)CC2)c1F` [Compound I-343], for which the IC50 in experiment [1] and in experiment [2] was 10 to 50 µM throughout.
On to `COCC(=O)N1CCC(CS(=O)(=O)NNC(=O)c2cc(-c3ccccc3)cc(C)c2F)CC1` [Compound I-344], for which the IC50 in experiment [1] and in experiment [2] was no more than 10 µM each time.
For `Cn1cc2c(C(=O)NNS(=O)(=O)c3ccccc3)cc(-c3ccccc3)cc2n1` [Compound I-345], the IC50 in experiment [1] and in experiment [2] was greater than 100 µM throughout.
Consider `COCC(=O)N1CCCC(CS(=O)(=O)NNC(=O)c2cc(-c3ccccc3)cc(C)c2F)C1` (centres unmarked) [Compound I-346], for which the IC50 in experiment [1] and in experiment [2] was no more than 10 µM in each case.
Turning to `Cc1cc(C)c(F)c(C(=O)NNS(=O)(=O)C2CCCCC2)c1` [Compound I-347], the values for the IC50 in experiment [1] and in experiment [2] were 10 to 50 µM and greater than 100 µM, respectively.
The corresponding values for `COc1cccc(-c2cc(C)c(F)c(C(=O)NNS(=O)(=O)C3CCCCC3)c2)c1` [Compound I-348] are 10 to 50 µM and 10 to 50 µM.
On to `Cc1cc(-c2ccccc2)cc(C(=O)NNS(=O)(=O)CC2CCN(C)CC2)c1F` [Compound I-349], for which the IC50 in experiment [1] and in experiment [2] was 10 to 50 µM each time.
Regarding `COc1cccc(-c2cc(C)c(F)c(C(=O)NNS(=O)(=O)c3ccccc3)c2)c1` [Compound I-350], the IC50 in experiment [1] was greater than 100 µM; in experiment [2] it was no more than 10 µM.
On to `Cc1cc(-c2ccccc2)cc(C(=O)NNS(=O)(=O)CC2CCCNC2)c1F` (centres unmarked) [Compound I-351], for which the IC50 in experiment [1] was 10 to 50 µM; in experiment [2] it was greater than 100 µM.
On to `Cc1cc(-c2ccccc2)cc(C(=O)NNS(=O)(=O)CC2CCCN(C(=O)OC(C)(C)C)C2)c1F` (centres unmarked) [Compound I-352], for which the IC50 in experiment [1] and in experiment [2] was no more than 10 µM each time.
On to `Cc1cc(-c2cc(F)cc(F)c2)cc(C(=O)NNS(=O)(=O)c2ccccc2)c1F` [Compound I-353], for which the concentration for half-maximal inhibition (IC50) in experiment [1] and in experiment [2] was no more than 10 µM throughout.
As to `O=C(NNS(=O)(=O)c1ccccc1)c1c(F)cccc1-c1ccccc1` [Compound I-354], the IC50 in experiment [1] and in experiment [2] was greater than 100 µM in each case.
In the case of `Cc1cc(-c2cc(F)cc(F)c2)cc(C(=O)NNS(=O)(=O)CC2CCCCC2)c1F` [Compound I-355], the half-maximal inhibitory concentration (IC50) in experiment [1] and in experiment [2] was 10 to 50 µM each time.
As for `COCC(=O)N1CCC(CS(=O)(=O)NNC(=O)c2cc(-c3ccccc3)cc(C)c2F)C1` (centres unmarked) [Compound I-356], the IC50 in experiment [1] and in experiment [2] was no more than 10 µM each time.
For `Cc1cc(-c2cccc(F)c2)cc(C(=O)NNS(=O)(=O)CC2CCNCC2)c1F` [Compound I-357], the IC50 in experiment [1] was 50 to 100 µM; in experiment [2], greater than 100 µM.
In the case of `Cc1cc(-c2cccc(Cl)c2)cc(C(=O)NNS(=O)(=O)C2CCCCC2)c1F` [Compound I-358], the results for the IC50 in experiment [1] and in experiment [2] were no more than 10 µM and 10 to 50 µM, respectively.
On to `Cc1cc(-c2cccc(F)c2)cc(C(=O)NNS(=O)(=O)CC2CCN(C(=O)OC(C)(C)C)CC2)c1F` [Compound I-359], for which the IC50 in experiment [1] and in experiment [2] was no more than 10 µM in each case.
As for `O=C(NNS(=O)(=O)C1CCCCC1)c1cc(-c2ccccc2)ccc1F` [Compound I-360], the IC50 in experiment [1] and in experiment [2] was 10 to 50 µM in each case.
Regarding `Cc1c(-c2ccccc2)ccc(F)c1C(=O)NNS(=O)(=O)Cc1ccccc1` [Compound I-361], the half-maximal inhibitory concentration (IC50) in experiment [1] was 50 to 100 µM; in experiment [2], greater than 100 µM.
The corresponding values for `Cc1cc(-c2cccc(F)c2F)cc(C(=O)NNS(=O)(=O)c2ccccc2)c1F` [Compound I-362] are no more than 10 µM and no more than 10 µM.
In the case of `Cc1c(C(=O)NNS(=O)(=O)C2CCCCC2)cccc1-c1ccccc1` [Compound I-363], the IC50 in experiment [1] and in experiment [2] was greater than 100 µM throughout.
`O=C(NNS(=O)(=O)C1CCCCC1)c1c(F)ccc(-c2ccccc2)c1F` [Compound I-364]: the IC50 in experiment [1] and in experiment [2] was 50 to 100 µM each time.
For `Cc1cc(-c2cccc(OCCN(C)C)c2)cc(C(=O)NNS(=O)(=O)CC2CCCCC2)c1F` [Compound I-365], the concentration for half-maximal inhibition (IC50) was 50 to 100 µM in experiment [1] and greater than 100 µM in experiment [2].
On the same counts, the results for `Cc1cc(-c2cccc(Cl)c2F)cc(C(=O)NNS(=O)(=O)CC2CCCCC2)c1F` [Compound I-366] are 10 to 50 µM and 50 to 100 µM.
In the case of `Cc1cc(-c2ccccc2)cc(C(=O)NCc2noc3ccccc23)c1F` [Compound I-368], the IC50 in experiment [1] and in experiment [2] was 50 to 100 µM throughout.
Take `Cc1cc(-c2ccccc2)cc(C(=O)NNS(=O)(=O)CC2CCCN(C(=O)C(C)C)C2)c1F` (centres unmarked) [Compound I-369]: the IC50 in experiment [1] and in experiment [2] was no more than 10 µM throughout.
With `COc1ccccc1-c1cc(C)c(F)c(C(=O)NNS(=O)(=O)CC2CCCCC2)c1` [Compound I-370], the results for the IC50 in experiment [1] and in experiment [2] were 10 to 50 µM and greater than 100 µM, respectively.
The corresponding values for `Cc1cc(-c2cccc(F)c2)cc(C(=O)NNS(=O)(=O)c2ccccc2)c1F` [Compound I-371] are no more than 10 µM and no more than 10 µM.
For the compound `CCC(=O)N1CCCC(CS(=O)(=O)NNC(=O)c2cc(-c3cccc(F)c3)cc(C)c2F)C1` (centres unmarked) [Compound I-372], the IC50 in experiment [1] and in experiment [2] was no more than 10 µM each time.
In the case of `CCc1cccc(-c2cc(C)c(F)c(C(=O)NNS(=O)(=O)CC3CCCCC3)c2)c1` [Compound I-373], the IC50 in experiment [1] and in experiment [2] was 50 to 100 µM in each case.
As for `Cc1cc(-c2cccc(C(=O)N(C)C)c2)cc(C(=O)NNS(=O)(=O)CC2CCCCC2)c1F` [Compound I-374], the IC50 in experiment [1] and in experiment [2] was 10 to 50 µM throughout.
For `O=C(NNS(=O)(=O)C1CCCCC1)c1cc(-c2ccccc2)cc2[nH]cnc12` [Compound I-375], the IC50 in experiment [1] and in experiment [2] was 50 to 100 µM in each case.
`Cc1cc(-c2cccc(Cl)c2F)cc(C(=O)NNS(=O)(=O)C2CCCCC2)c1F` [Compound I-376]: the IC50 in experiment [1] and in experiment [2] was 10 to 50 µM throughout.
Turning to `Cc1cc(-c2cccc(F)c2)cc(C(=O)NNS(=O)(=O)C2CCOCC2)c1F` [Compound I-377], the IC50 in experiment [1] and in experiment [2] was no more than 10 µM each time.
As for `Cc1cc(-c2cccc(C(=O)N(C)C)c2)cc(C(=O)NNS(=O)(=O)C2CCCCC2)c1F` [Compound I-378], the results for the half-inhibitory concentration (IC50) in experiment [1] and in experiment [2] were 50 to 100 µM and greater than 100 µM, respectively.
On the same counts, the results for `Cc1cc(-c2ccccc2)cc(C(=O)NNS(=O)(=O)CC2CCCN(C(=O)CCN(C)C(=O)OC(C)(C)C)C2)c1F` (centres unmarked) [Compound I-379] are no more than 10 µM and no more than 10 µM.
For the compound `Cc1cc(-c2cccc(F)c2F)cc(C(=O)NNS(=O)(=O)CC2CCCCC2)c1F` [Compound I-380], the IC50 in experiment [1] was greater than 100 µM; in experiment [2], 50 to 100 µM.
`Cc1cc(-c2cccc(F)c2F)cc(C(=O)NNS(=O)(=O)C2CCCCC2)c1F` [Compound I-381]: the IC50 was no more than 10 µM in experiment [1] and 10 to 50 µM in experiment [2].
With `Cc1cc(-c2ccccc2)cc(C(=O)NNS(=O)(=O)C(C)C2CCNCC2)c1F` (centres unmarked) [Compound I-382], the half-maximal inhibitory concentration (IC50) in experiment [1] and in experiment [2] was 50 to 100 µM throughout.
